The text below walks through data of patent publication US5391540A, “Substituted pyridine compounds” (Rohm and Haas Company, priority 1993, dated 1995).

Holding throughout (assay): Pre-emergent herbicidal activity (Table A)
Holding throughout (type): in vivo

Assay [1] deals with Barnyardgrass. The note with it: Echinochloa crus-galli, pre-emergence, Bygr, 11.2 kg/ha, 10-14 days, read-out: herbicidal rating (% inhibition). In outline: (§1)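 Percent inhibition per species, scored on a rating scale, after pre-emergent soil incorporation: test compound in acetone or water carrier mixed into cover soil, layered over seeded topsoil or vegetative propagules.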

For assay [2], the system named is Canada thistle. The note with it: Cirsium arvense, pre-emergence, Cath, 11.2 kg/ha, 10-14 days, read-out: herbicidal rating (% inhibition). In outline: as §1
Assay [3] deals with Cocklebur. The following applies: Xanthium strumarium, pre-emergence, Cobu, 11.2 kg/ha, 10-14 days, read-out: herbicidal rating (% inhibition). In outline: as §1
For assay [4], the system named is Common Lambsquarters. The following applies: Chenopodium album, pre-emergence, Colq, 11.2 kg/ha, 10-14 days, read-out: herbicidal rating (% inhibition). In outline: as §1
In assay [5] the test system is Downy Brome. The following applies: Bromus tectorum, pre-emergence, Dobr, 11.2 kg/ha, 10-14 days, read-out: herbicidal rating (% inhibition). An outline of the steps: as §1
Assay [6] relates to Morningglory. The note with it: Ipomoea, pre-emergence, Mogl, 11.2 kg/ha, 10-14 days, read-out: herbicidal rating (% inhibition). An outline of the steps: as §1
Assay [7] has as its system Pennsylvania Smartweed. The following applies: pre-emergence, Pesw, 11.2 kg/ha, 10-14 days, read-out: herbicidal rating (% inhibition). In outline: as §1
Assay [8] relates to Quackgrass. The note with it: pre-emergence, Rhqg, 11.2 kg/ha, 10-14 days, read-out: herbicidal rating (% inhibition). An outline of the steps: as §1
The test system of assay [9] is Rhizome Johnsongrass. The following applies: Sorghum halepense, pre-emergence, Rhjg, 11.2 kg/ha, 10-14 days, read-out: herbicidal rating (% inhibition). An outline of the steps: as §1
Assay [10] concerns Velvetleaf. The note with it: Abutilon theophrasti, pre-emergence, Vele, 11.2 kg/ha, 10-14 days, read-out: herbicidal rating (% inhibition). An outline of the steps:
as §1

The test system of assay [11] is Yellow Nutsedge. The note with it: Cyperus, pre-emergence, Yens, 11.2 kg/ha, 10-14 days, read-out: herbicidal rating (% inhibition). An outline of the steps:
as §1

Structures are written as SMILES.

A word on the inhibition: it is how much of the control response was suppressed. In the case of `COC(=O)c1c(OC)nc(C(F)(F)F)c(C(=O)N2CCC2)c1CC(C)C` [Compound 68, 3-pyridinecarboxylic acid, 5-(1-azetidinylcarbonyl)-2-methoxy-4-(2-methylpropyl)-6-(trifluoromethyl)-, methyl ester], the inhibition at 11200 g/ha in assay [1] was in the range of 75 to 100%; in assay [2], 25 to 49%; in assay [3] it was 0 to 24%; in assay [4], 75 to 100%; in assay [5] it was 75 to 100%; in assay [6], 50 to 74%. In addition, the inhibition at 11200 g/ha was 25 to 49% in [7]; 75 to 100% in [8]; 25 to 49% in [9]; 0 to 24% in [10]; 0 to 24% in assay [11].

Consider `COC(=O)c1c(OC)nc(C(F)(F)F)c(C(=O)N2CCSC2)c1CC(C)C` [Compound 71, 3-pyridinecarboxylic acid, 2-methoxy-4-(2-methylpropyl)-5-(3-thiazolidinylcarbonyl)-6-(trifluoromethyl)-, methyl ester], for which the inhibition at 11200 g/ha was 75 to 100% in assay [1]; 25 to 49% in [2]; 0 to 24% in assay [3]; 75 to 100% in [4]; 75 to 100% in assay [5]; 50 to 74% in assay [6]. Further, the inhibition at 11200 g/ha lay within 50 to 74% in [7]; 50 to 74% in assay [8]; 0 to 24% in [9]; 25 to 49% in assay [10]; 0 to 24% in assay [11].

Turning to `COC(=O)c1c(OC)nc(C(F)(F)F)c(C(=O)n2cccn2)c1C1CCC1` [Compound 52, 3-pyridinecarboxylic acid, 4-cyclobutyl-2-methoxy-5-(1H-pyrazo1-1-ylcarbonyl)-6-(trifluoromethyl)-, methyl ester], the inhibition at 11200 g/ha in assay [1], in assay [2], in assay [3], in assay [4], in [5] and in [6] was 75 to 100% in each case. In addition, the inhibition at 11200 g/ha in [7] lay within 75 to 100%; in [8] it was 75 to 100%; in assay [9], 0 to 24%; in assay [10], 75 to 100%; in assay [11], 75 to 100%.

As to `CNC(=O)c1c(C(F)(F)F)nc(OC)c(C(=O)OC)c1CC(C)C` [Compound 37, 3-pyridinecarboxylic acid, 2-methoxy-5-[(methylamino)carbonyl]-4-(2-methylpropyl)-6-(trifluoromethyl)-, methyl ester], the inhibition at 11200 g/ha in assay [1] was 0 to 24%; in [2], 0 to 24%; in assay [3] it was 0 to 24%; in assay [4], 75 to 100%; in assay [5], 0 to 24%; in assay [6], 0 to 24%. The inhibition at 11200 g/ha in assay [7], in assay [8], in assay [9], in assay [10] and in assay [11] was 0 to 24% in each case.

As to `COc1nc(C(F)(F)F)c(C2=NCCS2)c(CC(C)C)c1C(=O)SC` [Compound 54, 3-pyridinecarbothioic acid, 5-(4,5-dihydro-2-thiazolyl)-2-methoxy-4-(2-methylpropyl)-6-(trifluoromethyl)-, S-methyl ester], the inhibition at 11200 g/ha in assay [1] was 75 to 100%; in [2], 75 to 100%; in [3], 25 to 49%; in assay [4], 75 to 100%; in assay [5], 75 to 100%; in assay [6] it was 75 to 100%. Also, the inhibition at 11200 g/ha in assay [7] was 75 to 100%; in assay [8], 75 to 100%; in [9], 0 to 24%; in assay [10] it was 75 to 100%; in assay [11], 0 to 24%.

`COC(=O)c1c(C(F)(F)F)nc(OC)c(C(=O)n2ccnc2)c1CC(C)C` [Compound 28, 3-pyridinecarboxylic acid, 6-methoxy-4-(2-methylpropyl)-5-(1H-imidazo1-1-ylcarbonyl)-2-(trifluoromethyl)-, methyl ester]: the inhibition at 11200 g/ha in assay [1] lay in the range of 75 to 100%; in [2] it was 0 to 24%; in assay [3], 75 to 100%; in assay [4] it was 75 to 100%; in assay [5], 75 to 100%; in assay [6] it was 50 to 74%. The inhibition at 11200 g/ha fell in the range of 50 to 74% in assay [7]; 0 to 24% in assay [8]; 0 to 24% in assay [9]; 25 to 49% in assay [10]; 0 to 24% in [11].

With `COC(=O)c1c(OC)nc(C(F)(F)F)c(C2=NC(C)(C)CS2)c1CC(C)C` [Compound 75, 3-pyridinecarboxylic acid, 5-(4,5-dihydro-4,4-dimethy1-2-thiazolyl)-2-methoxy-4-(2-methylpropyl)-6-(trifluoromethyl)-, methyl ester], the inhibition at 11200 g/ha fell in the range of 75 to 100% in assay [1]; 75 to 100% in assay [2]; 50 to 74% in assay [3]; 75 to 100% in [4]; 75 to 100% in [5]; 75 to 100% in assay [6]. For the same molecule, the inhibition at 11200 g/ha is 75 to 100% in [7]; 75 to 100% in assay [8]; 25 to 49% in assay [9]; 75 to 100% in [10]; 75 to 100% in [11].

As to `COC(=O)c1c(C(F)(F)F)nc(OC)c(N=CSC)c1CC(C)C` [Compound 58, 3-pyridinecarboxylic acid, 6-methoxy-4-(2-methylpropyl)-5-[(methylthiomethylene)]amino-2-(trifluoromethyl)-, methyl ester], the inhibition at 11200 g/ha in assay [1] was in the range of 75 to 100%; in assay [2] it was 0 to 24%; in [3] it was 0 to 24%; in assay [4] it was 75 to 100%; in [5], 75 to 100%; in assay [6], 25 to 49%. Also, the inhibition at 11200 g/ha fell in the range of 75 to 100% in assay [7]; 75 to 100% in assay [8]; 0 to 24% in [9]; 25 to 49% in [10]; 0 to 24% in assay [11].

For the molecule `C=CCOc1nc(C(F)(F)F)c(C(=O)OC)c(CC(C)C)c1C(=O)OCC` [Compound 23, 3,5-pyridinecarboxylic acid, 4-(2-methy1-propyl)-2-(2-propenyloxy)-6-(trifluoromethyl)-, 3-ethyl 5-methyl ester, hydrate (1:0.3)], the inhibition at 11200 g/ha lay in the range of 75 to 100% in assay [1]; 0 to 24% in assay [2]; 0 to 24% in assay [3]; 75 to 100% in [4]; 75 to 100% in assay [5]; 25 to 49% in [6]. The inhibition at 11200 g/ha in assay [7] lay within 75 to 100%; in assay [8] it was 25 to 49%; in [9], 75 to 100%; in assay [10], 25 to 49%; in [11], 0 to 24%.

For `COC(=O)c1c(C(F)(F)F)nc(OC)c(-n2cccc2)c1CC(C)C` [Compound 14, 3-pyridinecarboxylic acid, 6-methoxy-4-(2-methylpropyl)-5-(1H-pyrro1-1-yl)-2-(trifluoromethyl)-, methyl ester], the inhibition at 11200 g/ha in assay [1] fell in the range of 75 to 100%; in assay [2], 75 to 100%; in assay [3] it was 0 to 24%; in [4], 75 to 100%; in assay [5], 75 to 100%; in assay [6], 75 to 100%. Moreover, the inhibition at 11200 g/ha in assay [7] was in the range of 75 to 100%; in [8], 50 to 74%; in [9], 75 to 100%; in assay [10], 75 to 100%; in assay [11] it was 0 to 24%.

As for `COC(=O)c1c(OC)nc(C(F)(F)F)c(C(=O)N2CCOCC2)c1CC(C)C` [Compound 69, 3-pyridinecarboxylic acid, 2-methoxy-4-(2-methylpropyl)-5-(4-morpholinyl)carbony1-6-(trifluoromethyl)-, methyl ester], the inhibition at 11200 g/ha in [1] is 75 to 100%; in [2], 50 to 74%; in assay [3], 0 to 24%; in assay [4], 75 to 100%; in assay [5], 25 to 49%; in [6], 25 to 49%. Further, the inhibition at 11200 g/ha is 0 to 24% in [7]; 75 to 100% in [8]; 50 to 74% in assay [9]; 0 to 24% in assay [10]; 0 to 24% in assay [11].
